Results published in paper PMC6600542 (Molecules, 2019).

How the values were obtained:
normal human plasma [1] = test: APTT clotting assay, normal human plasma; format: biochemical
Experimental: (§1) For the PT assay, thromboplastin-D was reconstituted according to the manufacturer’s directions and warmed to 37 °C. […] After incubation for 4 min at 37 °C, clotting was initiated by adding 100 μL of prewarmed 25 mM CaCl2 and the time to clotting was noted. […] To determine the in vitro effect on the APTT of deficient human plasmas, the APTT assay was repeated, using human plasmas deficient of factor VII (FVII), factor IX (FIX), FXI, or factor XII (FXII). […] The positive control used in APTT and PT assays was rivaroxaban, a clinically used FXa inhibitor. Under the conditions reported, rivaroxaban doubled the APTT and PT at concentrations of 0.123 ± 0.003 µM and 0.193 ± 0.043 µM, respectively.

normal human plasma [2] = test: PT clotting assay, normal human plasma; format: biochemical; conditions: normal human plasma (text)
Experimental: as §1

normal human plasma [3] = conditions: cited from earlier work

With `O=S(=O)(O)CCO` [isethionic acid] the “effect on the APTT” value (normal human plasma [1]; normal human plasma, highest concentration tested of 33.3 mM) was “did not affect the APTT”.

For `O=C(NC[C@H]1CN(c2ccc(N3CCOCC3=O)cc2)C(=O)O1)c1ccc(Cl)s1` [rivaroxaban], the “concentration to double the PT” value (normal human plasma [2]) is listed as 0.193 ± 0.043 µM, the “effect on TT” value (normal human plasma [3]) is listed as “no effect on TT” and the “concentration to double the APTT” value (normal human plasma [1]; normal human plasma (text)) is listed as 0.123 ± 0.003 µM.
